Key:
Type in all cases: cell-based
Human PMN cells = experiment: PMN chemotactic migration towards FMLP, Boyden chamber
Description: Since ICAM-1 is involved in cell migration, cell migration towards a chemotactic peptide was studied in cells treated with Compound I and STI. Human PMN cells were placed in one side of a Boyden chamber, using standard techniques, and a chemotactic peptide (FMLP) was placed in the other chamber. Cells were allowed to migrate into the second chamber, and the number of migrating cells per field and distance of migration were calculated. The experiment was repeated with PMN cells pretreated with one of the following: 5 or 0.5 mg/ml STI, 1 or 0.1 μM Compound I, a buffer vehicle, and with and without chemotactic peptide. The number of cells per field that migrated the same distance as the untreated control was measured. Without the peptide and with no treatment, an average of 19 cells/field were migrating a distance of 80 microns. […] In other words, no cells (or less than 5/field) were identified at 115 microns. […] The ability to inhibit PMN migration is an important constituent of anti-inflammatory compounds.

[1] = tested on: monolayer keratinocyte/melanocyte co-cultures; experiment: Pigmentation in monolayer keratinocyte/melanocyte co-cultures (K-M contact); conditions: keratinocyte-melanocyte contact
Description: (§1) Since PAR-2 is expressed in keratinocytes, but not in melanocytes, the possible requirement of keratinocyte-melanocyte contact was tested for the effect of Compound I and SLIGRL on melanosome phagocytosis by the keratinocytes. Primary melanocyte cultures (commercially available from Clonetics, San Diego) were plated under epidermal equivalents (EpiDerm, of MatTek, Ashland, Mass.) to create an equivalent-monolayer co-culture with no contact between keratinocytes and melanocytes. These co-cultures were compared to MelanoDerm equivalents (of MatTek), where melanocytes are present in the basal layer of the equivalent. Cultures were treated with Compound I, with the […], and with the PAR-2 agonist SLIGRL. As set forth in Table 3, keratinocytes are indicated by “K”, melanocytes are indicated by “M”, and lack of keratinocyte-melanocyte contact is indicated as “no K-M cont”. […] The same result was also observed with monolayer keratinocyte/melanocyte co-cultures having keratinocyte/melanocyte contact.

[2] = tested on: melanocyte cultures plated under epidermal equivalents (EpiDerm); experiment: Pigmentation in equivalent-monolayer co-culture (no K-M contact); conditions: no keratinocyte-melanocyte contact
Description: as §1

MelanoDerm equivalents = experiment: Pigmentation in melanocyte-containing epidermal equivalents; conditions: keratinocyte-melanocyte contact
Description: as §1

Substance | Migration (distance) (Human PMN cells; buffer without peptide: 80 μ) | Cells/Field (Human PMN cells; cells counted at 115 microns, PMN pretreated with 5 or 0.5 mg/ml STI or 1 or 0.1 μM Compound I, buffer without FMLP: 19 at 80 μ) | level of pigmentation, Mono-Layer Co-Cultures (K-M cont.) [1] | level of pigmentation, Equivalent Monolayer Co-culture (no K-M cont.) [2] | level of pigmentation, Epidermal Equivalents (K-M cont.) (MelanoDerm equivalents)
FMLP [reference compound] | 115 μ | 41 cells/field |  |  | 
TFLLRNPNDK [printed as PAR-2 agonist] |  |  | no effect | no effect | no effect

From patent US20020197244A1, “Compositions and methods for regulating phagocytosis and ICAM-1 expression” (priority 1998, published 2002)
